The source of these data is patent US20080300288A1, “Alkenyldiarylmethanes, Fused Analogs And Syntheses Thereof” (PURDUE RESEARCH FOUNDATION, priority 2005, published 2008).

A short description of data set [1]: Cytotoxicity in mock-infected MT-4 cells. Type of data set: cell-based. The settings on record: human, uninfected (mock-infected) MT-4 cells.
The test system of another data set is HIV-2 strain (ROD). Put plainly: MTT assay, HIV-2 strain (ROD) in MT-4 cells. The settings on record: Human immunodeficiency virus 2, MT4; HIV-2ROD in MT-4 cells; read-out: EC50 HIV-2-ROD (inhibition of cytopathicity). It is filed as cell-based.
The nature of data set [2]: Cytotoxicity in mock-infected CEM-SS cells. Type of data set: cell-based. The settings on record: human, uninfected (mock-infected) CEM-SS cells. How it is done:
In Vitro Antiviral Assays. Evaluation of the antiviral activity of compounds against HIV-1RF infection in CEM-SS cells was performed using the MTS cytoprotection assay as previously described. See, Rice, W. G.; Bader, J. P. Discovery and in Vitro Development of AIDS Antiviral Drugs as Biopharmaceuticals. Adv. Pharmacol. (San Diego) 1995, 6, 389-438, the disclosure of which is incorporated herein by reference. […] See, Pauwels, R.; Balzarini, J.; Baba, M.; Snoeck, R.; Schols, […].; De […]. Rapid and Automated Tetrazolium-based Colorimetric Assay for Detection of Anti-HIV Compounds. J. Virol. Methods 1988, 20, 309-321, the disclosure of which is incorporated herein by reference.

Data set [3] has as its target T1, recombinant HIV-1 RT enzyme (p66/51 dimer) (Human immunodeficiency virus type 1 group M subtype B, UniProt P04585).
T1 construct: recombinant HIV-1 RT enzyme (p66/51 dimer)
Kind of data set: RT inhibition assay, incorporation of [32P]GTP into poly(rC)/oligo(dG). It is filed as biochemical. Here is the method: RT Inhibition Assay. Analysis of the effects of the compounds on recombinant HIV-1 RT enzyme (p66/51 dimer) was performed as previously described. See, Buckheit, R. W. J.; Fliakas-Boltz, V.; Decker, W. D.; Robertson, J. L.; Stup, T. L.; Pyle, C. […] Antiviral Res. 1995, 26, 117-132, the disclosure of which is incorporated herein by reference. Briefly, inhibition of purified recombinant reverse transcriptase enzyme was measured by the incorporation of [^32P]GTP into poly(rC)/oligo(dG) (rCdG) homopolymer template primers.

Data set [4] can be described thus: In vitro hydrolytic stability study in rat plasma. It is filed as in vitro ADME. The settings on record: rat plasma in vitro, half-life. How it is done:
NMR spectra were obtained at 300 MHz (^1H) and 75 MHz (^13C) in CDCl3 using CHCl3 as internal standard. Flash chromatography was performed with 230-400 mesh silica gel. […] Melting points are uncorrected. Unless otherwise stated, chemicals and solvents were of reagent grade and used as obtained from commercial sources without further purification. Tetrahydrofuran (THF) was freshly distilled from sodium/benzophenone ketyl radical prior to use. Dichloromethane was freshly distilled from calcium hydride prior to use. Lyophilized rat plasma (lot 052K7609) was obtained from Sigma Chemical Co., St. Louis, Mo. All yields given refer to isolated yields.
In vitro Hydrolytic Stability Study in Rat Plasma. […] See, Silvestri, M. A.; Nagarajan, M.; De Clercq, E.; Pannecouque, C.; Cushman, M. Design, Synthesis, Anti-HIV Activities, and Metabolic Stabilities of Alkenyldiarylmethane (ADAM) Non-nucleoside Reverse Transcriptase Inhibitors. J. Med. Chem. 2004, 47, 3149-3162, the disclosure of which is incorporated herein by reference.

The next data set relates to HIV-1RF. Put plainly: MTS cytoprotection assay, HIV-1RF infection in CEM-SS cells. Type of data set: cell-based. The settings on record: Human immunodeficiency virus 1; HIV-1RF in CEM-SS cells; read-out: EC50 HIV-1RF (inhibition of cytopathicity). Here is the method:
In Vitro Antiviral Assays. Evaluation of the antiviral activity of compounds against HIV-1RF infection in CEM-SS cells was performed using the MTS cytoprotection assay as previously described. See, Rice, W. G.; Bader, J. P. Discovery and in Vitro Development of AIDS Antiviral Drugs as Biopharmaceuticals. Adv. Pharmacol. (San Diego) 1995, 6, 389-438, the disclosure of which is incorporated herein by reference. […] See, Pauwels, R.; Balzarini, J.; Baba, M.; Snoeck, R.; Schols, D.; Herdewijn, P.; Desmyter, J.; De Clercq, E. Rapid and Automated Tetrazolium-based Colorimetric Assay for Detection of Anti-HIV Compounds. J. Virol. Methods 1988, 20, 309-321, the disclosure of which is incorporated herein by reference.

The next data set relates to HIV-1 strain IIIB. Put plainly: MTT assay, HIV-1 strain IIIB in MT-4 cells. The settings on record: Human immunodeficiency virus 1, MT4; HIV-1IIIB in MT-4 cells; read-out: EC50 HIV-1IIIB (inhibition of cytopathicity). Type of data set: cell-based. On the technique in general: Tetrazolium dyes change colour on reduction, which living cells bring about.

As a reminder, the CC50 is the concentration that lowers cell viability or growth by half. Read a low CC50 as greater toxicity to the cells. In general, EC50 refers to the concentration that produces a half-maximal response. Usually IC50 stands for the concentration that gives 50% inhibition.

A value given as a limit tells only on which side of the number the result lay.

In the case of `COC(=O)CCC/C=C(/c1cc(Cl)c(OC)c(C(=O)OC)c1)c1cc(C)c2oc(=O)n(C)c2c1` [Compound 61, (E)-3-Chloro-5-[1-(3,7-dimethyl-2-oxo-2,3-dihydro-benzoxazol-5-yl)-5-methoxycarbonyl-pent-1-enyl]-2-methoxybenzoic Acid Methyl Ester], the CC50 stood at 29.7 µM in data set [1] and 9.47 µM in data set [2]. In addition, the EC50 was greater than 29.7 µM in the data set with HIV-2 strain (ROD), 0.53 µM in the data set on HIV-1RF and 0.25 µM in the data set on HIV-1 strain IIIB. Moreover, in data set [3], the IC50 worked out at 0.93 µM. For the same compound, the “Rat Plasma tp1/2 (min ± SD)” value in data set [4] is listed as 0.19 ± 0.01 min.
Consider `COC(=O)CCCC=C(c1cc(C)c2oc(=O)n(C)c2c1)c1cc(C)c2oc(=O)n(C)c2c1` [Compound 66, 6,6-Bis-(3,7-dimethyl-2-oxo-2,3-dihydrobenzoxazol-5-yl)-hex-5-enoic Acid Methyl Ester], for which the values for the CC50 in data set [1] and in data set [2] were 32.5 µM and 31 µM, respectively. In addition, the concentration for a half-maximal effect (EC50) is greater than 32.5 µM in the data set on HIV-2 strain (ROD), 0.62 µM in the data set with HIV-1RF and 0.22 µM in the data set with HIV-1 strain IIIB. Moreover, in data set [3], the IC50 worked out at 0.5 µM. In data set [4], the “Rat Plasma tp1/2 (min ± SD)” value was determined as 0.59 ± 0.01 min.
Consider `COC(=O)CCC/C=C(/c1cc(C)c2on(C)c(=O)c2c1)c1cc(C)c2oc(=O)n(C)c2c1` [Compound 65, (Z)-6-(2,7-Dimethyl-3-oxo-2,3-dihydro-benzo[d]isoxazol-5-yl)-6-(3,7-dimethyl-2-oxo-2,3-dihydro-benzoxazol-5-yl)-hex-5-enoic Acid Methyl Ester], for which the figures for the CC50 in data set [1] and in data set [2] were 36.5 µM and 11.1 µM, respectively. Also, the results for the half-maximal effective concentration (EC50) with HIV-2 strain (ROD), with HIV-1RF and in the data set on HIV-1 strain IIIB were greater than 36.5 µM, 1.79 µM and 4.48 µM, respectively. The IC50 in data set [3] worked out at 49.2 µM. In addition, the “Rat Plasma tp1/2 (min ± SD)” value in data set [4] worked out at 0.46 ± 0.03 min.
For `COC(=O)CCC/C=C(\c1cccc(C#N)c1)c1cc(Cl)ccc1OC` [Compound 18, (E)-6-(5-Chloro-2-methoxyphenyl)-6-(3-cyanophenyl)-hex-5-enoic Acid Methyl Ester], the figures for the CC50 in data set [1] and in data set [2] were no less than 45.1 µM and 16.3 µM, respectively. In addition, the EC50 in the data set with HIV-2 strain (ROD) was greater than 67.6 µM; in the data set on HIV-1RF, 7 µM; in the data set with HIV-1 strain IIIB it was 9.11 µM. Also, the 50% inhibitory concentration (IC50) in data set [3] turned out to be 0.78 µM. Besides, the “Rat Plasma tp1/2 (min ± SD)” value in data set [4] is given as 0.42 ± 0.02 min.
As for `COC(=O)CCC/C=C(\c1cc(F)cc(C(F)(F)F)c1)c1cc(C)c2oc(=O)n(C)c2c1` [Compound 63, (Z)-6-(3,7-Dimethyl-2-oxo-2,3-dihydrobenzoxazol-5-yl)-6-(3-fluoro-5-trifluoromethylphenyl)-hex-5-enoic Acid Methyl Ester], the CC50 in data set [1] was 51 µM; in data set [2] it was 15 µM. Besides, the EC50 with HIV-2 strain (ROD) was greater than 60 µM; with HIV-1RF, greater than 100 µM; in the data set on HIV-1 strain IIIB, 4.36 µM. Further, the IC50 in data set [3] is greater than 100 µM. In addition, the “Rat Plasma tp1/2 (min ± SD)” value in data set [4] came out at 3.06 ± 0.32 min.
On to `COC(=O)c1cc(/C(=C\CCN2CCOC2=O)c2ccc(OC)c(OC)c2)cc(C)c1OC` [Compound 3], for which the CC50 is 1.05 µM in data set [1] and 0.49 µM in data set [2]. Besides, the EC50 in the data set with HIV-2 strain (ROD) was greater than 1.05 µM; with HIV-1RF, greater than 100 µM; in the data set with HIV-1 strain IIIB, greater than 1.05 µM. Further, the IC50 in data set [3] is 1 µM. In addition, the “Rat Plasma tp1/2 (min ± SD)” value in data set [4] is 5.76 ± 0.68 min.
Consider `COC(=O)CCC/C=C(/c1cc(F)cc(C(F)(F)F)c1)c1cc(C)c(OC)c(C(=O)OC)c1` [Compound 15, (E)-5-[1-(3-Fluoro-5-trifluoromethylphenyl)-5-methoxycarbonyl-pent-1-enyl]-2-methoxy-3-methylbenzoic Acid Methyl Ester], for which the CC50 in data set [1] was determined as 113 µM; in data set [2] it was 9.3 µM. For the same compound, the values for the concentration for a half-maximal effect (EC50) in the data set with HIV-2 strain (ROD), in the data set with HIV-1RF and in the data set on HIV-1 strain IIIB were 10.6 µM, 7.3 µM and 2.54 µM, respectively. Further, the IC50 in data set [3] was determined as 55.3 µM. For the same compound, the “Rat Plasma tp1/2 (min ± SD)” value in data set [4] is on record as 4.35 ± 0.41 min.
